# From patent US12162820B2 (TAIWANJ PHARMACEUTICALS CO., LTD., priority 2019, dated 2024)
# Tests used:
# Format in all cases: biochemical
# HDAC3 = target: T1, HDAC3 (Homo sapiens, UniProt O15379); assay: HDAC Inhibition Screening Assay (FLUOR DE LYS Fluorimetric Drug Discovery Kit), HDAC3; conditions: for inhibition at 2 µM: 2 μM compound; for inhibition at 10 µM: 10 μM compound; for inhibition at 50 µM: 50 μM compound
# T1 construct: purchased Enzo Life Sciences
# Description: (§1) The HDAC1/HDAC2/HDAC3 in vitro activities are detected by Enzo Life Sciences' HDAC1/HDAC2/HDAC3 Fluorimetric Drug Discovery Kit. The assay is based on the FLUOR DE LYS® Substrate and FLUOR DE LYS® Developer combination. The assay procedure has two steps. First, the FLUOR DE LYS® Substrate, which comprises an acetylated lysine side chain, is incubated with HDAC1/HDAC2/HDAC3, respectively. Deacetylation of the substrate sensitizes the substrate so that, in the second step, treatment with the FLUOR DE LYS® Developer produces a fluorophore. The signals of the test compounds (Compounds 1˜83; at concentrations of 2 μM, 10 μM and 50 μM) in 96-well plates are detected at 360 nm or 485 nm excitation and 460 nm or 530 nm emission with a Molecular Devices SpectraMax i3 Imaging Cytometer. The HDAC1/HDAC2/HDAC3 activities are expressed in percentage of basal control minus baseline control.
# ATX (autotaxin) = target: T2, ATX (autotaxin) (Homo sapiens, UniProt Q13822); assay: Autotaxin Inhibition Screening Assay (choline release from LPC, LPC-CR); conditions: for inhibition at 4 µM: 4 μM compound; for inhibition at 20 µM: 20 μM compound; for inhibition at 50 µM: 50 μM compound
# T2 construct: purchased Cayman 10803
# Description: ATX (autotaxin) activity was measured by choline release from LPC in presence or absence of test compounds (Compounds 1˜83; at concentrations of 4 μM, 20 μM and 50 μM). Twenty (20) ng ATX (10803, Cayman, MI, USA) was incubated with 100 μM 14:0 LPC (855575P, Avanti, AL, USA) in a final volume of 100 μL buffer containing 50 mM Tris pH 8.0, 0.01% Triton X-100, 50 mM CaCl2, 1 unit/ml choline oxidase, 2 unit/ml horseradish peroxidase (HRP), 2 mM homovanilic acid (HVA). The relative amount of released choline was measured by HVA fluorescence in a 96-well plate. Fluorescent intensity was determined at λex/λem=320/450 nm every 60 sec for 90 min with a SpectraMax i3 (Molecular Devices, CA, USA). Data analysis was performed using GraphPad Prism (GraphPad, La Jolla CA, USA). Inhibition %=[1−(SlopeTA−SlopeBlank)/(SlopeVehicle−SlopeBlank)]×100% HDAC Inhibition Screening Assay
# HDAC1 = target: T3, HDAC1 (Homo sapiens, UniProt Q13547); assay: HDAC Inhibition Screening Assay (FLUOR DE LYS Fluorimetric Drug Discovery Kit), HDAC1; conditions: for inhibition at 2 µM: 2 μM compound; for inhibition at 10 µM: 10 μM compound; for inhibition at 50 µM: 50 μM compound
# T3 construct: purchased Enzo Life Sciences
# Description: as §1
# HDAC2 = target: T4, HDAC2 (Homo sapiens, UniProt Q92769); assay: HDAC Inhibition Screening Assay (FLUOR DE LYS Fluorimetric Drug Discovery Kit), HDAC2; conditions: for inhibition at 2 µM: 2 μM compound; for inhibition at 10 µM: 10 μM compound; for inhibition at 50 µM: 50 μM compound
# T4 construct: purchased Enzo Life Sciences
# Description: as §1
# T4 sequence (Q92769 whole entry): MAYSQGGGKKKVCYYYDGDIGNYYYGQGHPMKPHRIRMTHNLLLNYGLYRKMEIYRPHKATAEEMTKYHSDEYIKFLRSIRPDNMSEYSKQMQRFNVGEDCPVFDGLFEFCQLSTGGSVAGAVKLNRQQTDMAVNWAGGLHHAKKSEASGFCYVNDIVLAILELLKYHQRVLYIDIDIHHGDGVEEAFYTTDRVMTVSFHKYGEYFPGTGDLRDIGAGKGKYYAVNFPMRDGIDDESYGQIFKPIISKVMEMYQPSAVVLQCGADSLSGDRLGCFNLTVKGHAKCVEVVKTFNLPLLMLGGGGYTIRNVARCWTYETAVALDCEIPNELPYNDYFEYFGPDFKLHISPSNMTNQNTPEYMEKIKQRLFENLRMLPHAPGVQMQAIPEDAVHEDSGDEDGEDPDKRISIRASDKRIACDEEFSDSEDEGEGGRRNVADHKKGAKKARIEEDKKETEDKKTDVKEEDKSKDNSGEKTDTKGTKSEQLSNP
# T3 sequence (Q13547 whole entry): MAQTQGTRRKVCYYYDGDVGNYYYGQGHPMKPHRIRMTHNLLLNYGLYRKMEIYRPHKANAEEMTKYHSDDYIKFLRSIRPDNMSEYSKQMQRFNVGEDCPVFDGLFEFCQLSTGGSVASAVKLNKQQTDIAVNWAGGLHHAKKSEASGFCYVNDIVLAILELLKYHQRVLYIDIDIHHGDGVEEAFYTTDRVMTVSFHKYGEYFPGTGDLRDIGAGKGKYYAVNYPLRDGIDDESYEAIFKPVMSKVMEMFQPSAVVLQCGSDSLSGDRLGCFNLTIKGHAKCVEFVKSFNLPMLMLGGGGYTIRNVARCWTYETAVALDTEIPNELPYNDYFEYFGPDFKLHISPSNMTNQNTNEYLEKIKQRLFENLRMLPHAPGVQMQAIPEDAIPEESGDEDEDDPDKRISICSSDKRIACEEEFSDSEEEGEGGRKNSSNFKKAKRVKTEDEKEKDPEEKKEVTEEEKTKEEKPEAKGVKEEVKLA
# T1 sequence (O15379 whole entry): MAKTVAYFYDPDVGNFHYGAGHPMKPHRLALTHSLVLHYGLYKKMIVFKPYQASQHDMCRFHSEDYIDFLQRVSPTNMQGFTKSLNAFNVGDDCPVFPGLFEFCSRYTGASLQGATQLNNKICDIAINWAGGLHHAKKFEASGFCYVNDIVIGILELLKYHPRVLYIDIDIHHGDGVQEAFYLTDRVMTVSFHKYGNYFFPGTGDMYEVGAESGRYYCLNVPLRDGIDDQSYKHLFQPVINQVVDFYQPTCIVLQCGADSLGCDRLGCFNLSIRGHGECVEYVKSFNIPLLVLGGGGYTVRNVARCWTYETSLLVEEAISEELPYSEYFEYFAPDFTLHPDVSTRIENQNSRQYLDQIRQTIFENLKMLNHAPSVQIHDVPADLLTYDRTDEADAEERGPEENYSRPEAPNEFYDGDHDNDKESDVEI
# T1 sequence (O75376 395-489 partner limits assumed): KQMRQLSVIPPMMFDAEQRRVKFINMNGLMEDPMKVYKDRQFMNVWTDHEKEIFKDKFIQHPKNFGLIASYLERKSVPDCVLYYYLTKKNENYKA
SMILES,inhibition at 2 µM (HDAC3) [%],inhibition at 10 µM (HDAC3) [%],inhibition at 50 µM (HDAC3) [%],inhibition at 4 µM (ATX (autotaxin)) [%],inhibition at 20 µM (ATX (autotaxin)) [%],inhibition at 50 µM (ATX (autotaxin)) [%],inhibition at 2 µM (HDAC1) [%],inhibition at 10 µM (HDAC1) [%],inhibition at 50 µM (HDAC1) [%],inhibition at 2 µM (HDAC2) [%],inhibition at 10 µM (HDAC2) [%],inhibition at 50 µM (HDAC2) [%]
Nc1cc(F)ccc1NC(=O)CCCCCCC(=O)NC1CCc2cc(/C=C/C(=O)Nc3cc(Cl)cc(Cl)c3)ccc21 (stereo not drawn) [Compound 41],< 50,< 50,< 50,< 50,< 50,< 50,< 50,< 50,< 50,< 50,< 50,< 50
"COc1ccc(N2C(=O)CN(C3CCc4cc(/C=C/C(=O)NO)ccc43)C2=O)cc1 (stereo not drawn) [Compound 38, (E)-N-hydroxy-3-(1-(3-(4-methoxyphenyl)-2,4-dioxoimidazolidin-1-yl)-2,3-dihydro-1H-inden-5-yl)acrylamide]",> 80,> 80,> 80,< 50,< 50,< 50,> 80,> 80,> 80,> 80,> 80,> 80
"O=C(/C=C/c1ccc2c(c1)CCC2NCCc1cc(Cl)cc(Cl)c1)NO (stereo not drawn) [Compound 55, (E)-3-(1-((3,5-dichlorophenethyl)amino)-2,3-dihydro-1H-inden-5-yl)-N-hydroxyacrylamide]",> 80,> 80,> 80,< 50,< 50,< 50,> 80,> 80,> 80,> 80,> 80,> 80
Nc1cc(F)ccc1NC(=O)CCCCCNC(=O)c1ccc2c(c1)CC/C(=C\c1cc(C(F)(F)F)cc(C(F)(F)F)c1)C2=O [Compound 78],< 50,< 50,< 50,> 80,> 80,> 80,< 50,< 50,< 50,< 50,< 50,< 50
"Nc1cc(F)ccc1NC(=O)CCCCCC(=O)Nc1ccc2c(c1)CC/C(=C\c1cc(C(F)(F)F)cc(C(F)(F)F)c1)C2=O [Compound 11, (E)-N1-(2-amino-4-fluorophenyl)-N7-(6-(3,5-bis(trifluoromethyl)benzylidene)-5-oxo-5,6,7,8-tetrahydronaphthalen-2-yl)heptanediamide]",< 50,< 50,< 50,> 80,> 80,> 80,< 50,< 50,< 50,< 50,< 50,< 50
"O=C(CCCCCNC(=O)c1ccc2c(c1)CC/C(=C\c1cc(C(F)(F)F)cc(C(F)(F)F)c1)C2=O)NO [Compound 79, (E)-6-(3,5-bis(trifluoromethyl)benzylidene)-N-(6-(hydroxyamino)-6-oxohexyl)-5-oxo-5,6,7,8-tetrahydronaphthalene-2-carboxamide]",50 to 80,> 80,> 80,> 80,> 80,> 80,50 to 80,> 80,> 80,50 to 80,> 80,> 80
"Nc1cc(F)ccc1NC(=O)/C=C/c1ccc2c(c1)CCC2NC(=O)c1cc(C(F)(F)F)cc(C(F)(F)F)c1 (stereo not drawn) [Compound 21, (E)-N-(5-(3-((2-amino-4-fluorophenyl)amino)-3-oxoprop-1-en-1-yl)-2,3-dihydro-1H-inden-1-yl)-3,5-bis(trifluoromethyl)benzamide]",< 50,< 50,< 50,< 50,< 50,< 50,< 50,< 50,< 50,< 50,< 50,< 50
"Nc1cc(F)ccc1NC(=O)/C=C/c1ccc(COc2ccc3c(c2)CCCC3=O)cc1 [Compound 69, (E)-N-(2-amino-4-fluorophenyl)-3-(4-(((5-oxo-5,6,7,8-tetra-hydronaphthalen-2-yl)oxy)methyl)phenyl)acrylamide]",< 50,< 50,< 50,< 50,< 50,< 50,< 50,< 50,< 50,< 50,< 50,50 to 80
"CN(C(=O)OCc1cc(C(F)(F)F)cc(C(F)(F)F)c1)C1CCc2ccc(/C=C/C(=O)NO)cc21 (stereo not drawn) [Compound 65, 3,5-bis(trifluoromethyl)benzyl (E)-(6-(3-(hydroxyamino)-3-oxoprop-1-en-1-yl)-2,3-dihydro-1H-inden-1-yl)(methyl)carbamate]",< 50,50 to 80,> 80,> 80,> 80,> 80,< 50,50 to 80,> 80,50 to 80,> 80,> 80
"O=C(CCCCC(=O)N1CCN(C(=O)c2ccc3c(c2)CC/C(=C\c2cc(C(F)(F)F)cc(C(F)(F)F)c2)C3=O)CC1)NO [Compound 83, (E)-6-(4-(6-(3,5-bis(trifluoromethyl)benzylidene)-5-oxo-5,6,7,8-tetrahydro-naphthalene-2-carbonyl)piperazin-1-yl)-N-hydroxy-6-oxohexanamide]",< 50,< 50,50 to 80,> 80,> 80,> 80,< 50,< 50,50 to 80,< 50,< 50,50 to 80
"O=C(/C=C/c1ccc2c(c1)CCC2NC(=O)c1ccc(F)cc1)NCCCCCC(=O)NO (stereo not drawn) [Compound 32, (E)-4-fluoro-N-(5-(3-((6-(hydroxyamino)-6-oxohexyl)amino)-3-oxoprop-1-en-1-yl)-2,3-dihydro-1H-inden-1-yl)benzamide]",50 to 80,> 80,> 80,< 50,< 50,< 50,> 80,> 80,> 80,> 80,> 80,> 80
COc1ccc2c(c1)CCC2NC(=O)CCCCCCC(=O)NO (stereo not drawn) [Compound 44],50 to 80,> 80,> 80,< 50,< 50,< 50,50 to 80,> 80,> 80,50 to 80,> 80,> 80
"O=C(/C=C/c1ccc2c(c1)CC/C(=C\c1cc(C(F)(F)F)cc(C(F)(F)F)c1)C2=O)NO [Compound 7, (E)-3-(6-((E)-3,5-bis(trifluoromethyl)benzylidene)-5-oxo-5,6,7,8-tetrahydronaphthalen-2-yl)-N-hydroxyacrylamide]",< 50,< 50,50 to 80,< 50,50 to 80,50 to 80,< 50,< 50,50 to 80,< 50,< 50,50 to 80
